Reference: patent US8889671B2, “Compounds and methods for treating bacterial infections” (AstraZeneca AB, priority 2013, dated 2014)
In brackets after ≈: the same amount, converted by molar mass. Where two headings read alike, the source gives them in different places.

Legend:
[1] = test system: Streptococcus pyogenes; experiment: Susceptibility testing (MIC) Assay 1, broth microdilution; format: cell-based; details: Streptococcus pyogenes, Streptococcus pyrgenes, in vivo strain; read-out: Spy MIC
Method: (§1) Minimum Inhibitory Concentrations (MICs) were determined by the broth microdilution method in accordance with the Clinical and Laboratory Standards Institute (CLSI) guidelines. In brief, organism suspensions were adjusted to a 0.5 McFarland standard to yield a final inoculum between 3×10^5 and 7×10^5 colony-forming units (CFU)/mL. Bacterial inocula were prepared for most organisms in sterile, cation adjusted Mueller-Hinton Broth (Beckton Dickinson). The streptococci were prepared as above in cation adjusted Mueller-Hinton Broth to which 2.5% lysed horse blood (Hema Resource & Supply Inc.) was added. An inoculum volume of 100 μL was added to wells (using a Tecan EVO robot) containing 2 μL of DMSO containing 2-fold serial dilutions of drug. All inoculated microdilution trays were incubated in ambient air at 35° C. for 18-24 hours. Following incubation, the lowest concentration of the drug that prevented visible growth as read at OD600 nm and confirmed by a visual read using a test reading mirror was recorded as the MIC. Performance of the assay was monitored by the use of laboratory quality-control strains and commercially available control compounds with defined MIC spectrums, in accordance with CLSI guidelines. Table 1 provides the MIC results (μM) of Examples 1-77 tested in Assay 1. Table 2 provides the MIC (μg/mL) results of Examples 78-80 tested in Assay 1.

[2] = test system: Staphylococcus aureus; experiment: as above; format: cell-based; details: Staphylococcus aureus
Method: as §1

[3] = test system: Streptococcus pneumoniae; experiment: as above; format: cell-based
Method: as §1

[4] = target: Escherichia coli DNA gyrase A/B tetramer (Escherichia coli (strain K12), UniProt P0AES4+P0AES6); experiment: DNA gyrase supercoiling activity fluorescence polarisation assay; format: biochemical; details: Eco Gyr FP Mean IC50, E. coli DNA gyrase supercoiling, 0.3 mM ATP
Method: In a black, 384-well polystyrene assay plate, 30 microliters/well of 5 nM Escherichia coli DNA gyrase A/B tetramer and 130 micrograms/mL of topologically relaxed plasmid containing the triplex-forming sequence
in an assay buffer consisting of 35 mM Tris-HCl (pH 7.5), 24 mM KCl, 4 mM MgCl2, 2 mM dithiothreitol, 1.8 mM spermidine, 5% (v/v) glycerol, 200 nM bovine serum albumin, 0.8% dimethylsulfoxide, and 0.3 mM ATP were incubated at ambient temperature for (typically 30 minutes) in the absence or presence of 5-10 different concentrations of test compound. The supercoiling reactions were quenched by the addition of 10 microliters/well of 40 nM oligodeoxynucleotide probe in 3× triplex-forming buffer consisting of 150 mM NaCl, and 150 mM sodium acetate at pH 3.5. The oligodeoxynucleotide probe was 5′-BODIPY-FL-labeled
After 60 minutes, the fluorescence anisotropy of the BODIPY-FL was measured in a Tecan Ultra plate reader, using 485 nm excitation and 535 nm emission filters equipped with polarizers. The IC50 was determined by nonlinear regression using two control reactions.

[5] = test system: Haemophilus influenzae; experiment: Susceptibility testing (MIC) Assay 2, broth microdilution; format: cell-based; details: ATCC51907, Haemophilus influenzae, ATCC 51907, in vivo strain, read-out: Hin MIC
Method: (§2) Minimum Inhibitory Concentrations (MICs) were determined by the broth microdilution method in accordance with the Clinical and Laboratory Standards Institute (CLSI) guidelines. In brief, organism suspensions were adjusted to a 0.5 McFarland standard to yield a final inoculum between 3×10^5 and 7×10^5 colony-forming units (CFU)/mL. Bacterial inocula were generally prepared in sterile, cation adjusted Mueller-Hinton Broth (Becton Dickinson) which included Escherichia coli, Klebsiella pneumoniae, and Pseudomonas aeruginosa. Haemophilus influenzae bacterial inocula were prepared in sterile, cation adjusted Mueller-Hinton Broth (Becton Dickinson) containing 0.5% yeast extract (Becton Dickinson) plus 30 mL of 15 μg/mL Bovine Hematin stock (Sigma), and 3 mL of 15 μg/mL β-nicotinamide adenine dinucleotide (Sigma). Strains of Neisseria were tested for MICs using agar dilution methodology in accordance with CLSI guidelines. For broth microdilution testing, an inoculum volume of 100 μL was added to wells (using a Tecan EVO robot) containing 2 μL of DMSO containing 2-fold serial dilutions of drug. All inoculated microdilution panels were incubated in ambient air at 35° C. for 18-24 hours. Following incubation, the lowest concentration of the drug that prevented visible growth as read at OD600 nm and confirmed by a visual read using a test reading mirror was recorded as the MIC. Performance of the assay was monitored by the use of laboratory quality-control strains and commercially available control compounds with defined MIC spectrums, in accordance with CLSI guidelines. Table 3 provides the MIC results (μM) of Examples 1-77 tested in Assay 2. Table 4 provides the MIC (μg/mL) results of Examples 78-80 tested in Assay 2.

[6] = test system: Klebsiella pneumoniae; experiment: as above; format: cell-based; details: clinical isolate, mucoid, read-out: Kpn MIC
Method: as §2

[7] = test system: Escherichia coli; experiment: as above; format: cell-based; details: K12, read-out: Eco MIC
Method: as §2

[8] = test system: Pseudomonas aeruginosa; experiment: as above; format: cell-based; details: PAO1, read-out: Pae MIC
Method: as §2

[9] = Staphylococcus aureus in vivo strain, MSQS, read-out: Sau(d) MIC
[10] = in vivo strain, MRQR, read-out: Sau(e) MIC
[11] = in vivo strain (footnote b), read-out: Spn(b) MIC
[12] = in vivo strain (footnote c), read-out: Spn(c) MIC

SMILES	MIC [1] [µM]	MIC [2, 9] [µM]	MIC [2, 10] [µM]	MIC ([2]; serum, read-out: Sau(f) MIC) [µM]	MIC [3, 11] [µM]	MIC [3, 12] [µM]	IC50 [4] [nM]	MIC [5] [µM]	MIC [6] [µM]	MIC [7] [µM]	MIC [8] [µM]
C=C[C@H]1COC(=O)N1c1noc2c(F)c3c(cc12)CC1(C(=O)NC(=O)NC1=O)[C@H]1[C@H](C)O[C@H](C)CN31 [Example 39, (2R,4S,4aS)-11-Fluoro-2,4-dimethyl-8-((S)-2-oxo-4-vinyloxazolidin-3-yl)-2,4,4a,6-tetrahydro-1H,1′H-spiro[isoxazolo[4,5-g][1,4]oxazino[4,3-a]quinoline-5,5′-pyrimidine]-2′,4′,6′(3′H)-trione]	0.39 (≈ 0.195 µg/mL)	0.39 (≈ 0.195 µg/mL)	1.6 (≈ 0.799 µg/mL)	1.6 (≈ 0.799 µg/mL)	0.78 (≈ 0.39 µg/mL)	0.78 (≈ 0.39 µg/mL)	97	0.39 (≈ 0.195 µg/mL)	200 (≈ 99.9 µg/mL)	25 (≈ 12.5 µg/mL)	> 200
COC[C@@H]1CN(c2noc3c(Cl)c4c(cc23)CC2(C(=O)NC(=O)NC2=O)[C@H]2[C@H](C)O[C@H](C)CN42)C(=O)O1 [Example 20]	0.28 (≈ 0.149 µg/mL)	0.28 (≈ 0.149 µg/mL)	1.1 (≈ 0.587 µg/mL)	0.39 (≈ 0.208 µg/mL)	0.28 (≈ 0.149 µg/mL)	0.28 (≈ 0.149 µg/mL)	420	0.39 (≈ 0.208 µg/mL)	> 200	25 (≈ 13.3 µg/mL)	> 200
C[C@@H]1CN2c3c(cc4c(N5C(=O)OC[C@@H]5C=NO)noc4c3F)CC3(C(=O)NC(=O)NC3=O)[C@H]2[C@H](C)O1 [Example 74, (2R,4S,4aS)-11-fluoro-8-{(4S)-4-[(hydroxyimino)methyl]-2-oxo-1,3-oxazolidin-3-yl}-2,4-dimethyl-1,2,4,4a-tetrahydro-2′H,6H-spiro[1,4-oxazino[4,3-a][1,2]oxazolo[4,5-g]quinoline-5,5′-pyrimidine]-2′,4′,6′(1′H,3′H)-trione]	1.6 (≈ 0.826 µg/mL)	6.2 (≈ 3.2 µg/mL)	12 (≈ 6.2 µg/mL)	12 (≈ 6.2 µg/mL)	1.6 (≈ 0.826 µg/mL)	1.6 (≈ 0.826 µg/mL)	470	0.78 (≈ 0.403 µg/mL)	> 200	100 (≈ 51.6 µg/mL)	> 200
C[C@@H]1CN2c3c(cc4c(N5C(=O)OC[C@H]5c5ncccn5)noc4c3F)CC3(C(=O)NC(=O)NC3=O)[C@H]2[C@H](C)O1 [Example 63, (2R,4S,4aS)-11-Fluoro-2,4-dimethyl-8-((R)-2-oxo-4-(pyrimidin-2-yl)oxazolidin-3-yl)-2,4,4a,6-tetrahydro-1H,1′H-spiro[isoxazolo[4,5-g][1,4]oxazino[4,3-a]quinoline-5,5′-pyrimidine]-2′,4′,6′(3′H)-trione]	0.39 (≈ 0.215 µg/mL)	0.78 (≈ 0.43 µg/mL)	3.1 (≈ 1.71 µg/mL)	> 200	0.39 (≈ 0.215 µg/mL)	0.39 (≈ 0.215 µg/mL)	380	0.39 (≈ 0.215 µg/mL)	> 200	100 (≈ 55.1 µg/mL)	> 200
C[C@@H]1CN2c3c(cc4c(N5C(=O)OC[C@H]5C)noc4c3F)CC3(C(=O)NC(=O)NC3=O)[C@H]2[C@H](C)O1 [Example 2, (2R,4S,4aS)-11-Fluoro-2,4-dimethyl-8-[(4R)-4-methyl-2-oxo-1,3-oxazolidin-3-yl]-1,2,4,4a-tetrahydro-2′H,6H-spiro[1,4-oxazino[4,3-a][1,2]oxazolo[4,5-g]quinoline-5,5′-pyrimidine]-2′,4′,6′(1′H,3′H)-trione]	3.1 (≈ 1.51 µg/mL)	3.1 (≈ 1.51 µg/mL)	12 (≈ 5.85 µg/mL)	6.2 (≈ 3.02 µg/mL)	12 (≈ 5.85 µg/mL)	3.1 (≈ 1.51 µg/mL)	2700	1.6 (≈ 0.78 µg/mL)	> 200	100 (≈ 48.7 µg/mL)	> 200
